Experimental data as given in US11629154B2, “Tetrahydropyranooxazine derivatives having selective BACE1 inhibitory activity” (SHIONOGI & CO., LTD., priority 2018, dated 2023).

Key:
[1] = test system: Abeta 1-42 in cerebrospinal fluid (CSF); assay: Pharmacology in the beagle dog: beta-amyloid profile in CSF; assay type: in vivo
Protocol: Test compounds were tested to evaluate the effect on the beta-amyloid profile in cerebrospinal fluid (CSF) of dogs after a single dose, in combination with pharmacokinetic (PK) follow up and limited safety evaluation.
In the case of compounds shown below, two or 4 beagle dogs (1 or 2 male, 1 or 2 female) were dosed with vehicle (1 mL/kg of an aqueous solution of 20% cyclodextrin) and 4 beagle dogs (2 males and 2 females) per dose group were dosed with test compound at the doses indicated in Table 20 in an aqueous 20% cyclodextrin solution with a concentration in mg/mL identical to the dose given in mg/kg) on an empty stomach.
CSF was taken in conscious animals directly from the lateral ventricle via a cannula which was screwed in the skull and covered with subcutaneous tissue and skin, before and at 4, 8, 25 and 49 hours after dosing. Eight hours after dosing the animals got access to their regular meal for 30 minutes. Blood was taken for PK follow up (0.5, 1, 2, 4, 8, 25 and 49 hours) and serum samples for biochemistry were taken before and at 8 and 25h after dosing. The CSF samples were used for measurement of Abeta 1-37, Abeta 1-38, Abeta 1-40 and Abeta 1-42.

[2] = biological target: recombinant BACE2 protein (Homo sapiens (Human), UniProt Q9Y5Z0); assay: BACE2 biochemical FRET based assay; conditions: pH 5.0
Source text: (2) BACE2 Biochemical FRET Based Assay
(§1) This assay is a Fluorescence Resonance Energy Transfer Assay (FRET) based assay. The substrate for this assay contains the ‘Swedish’ Lys-Met/Asn-Leu mutation of the amyloid precursor protein (APP) beta-secretase cleavage site. This substrate also contains two fluorophores: (7-methoxycoumarin-4-yl) acetic acid (Mca) is a fluorescent donor with excitation wavelength at 320 nm and emission at 405 nm and 2,4-dinitrophenol (Dnp) is a proprietary quencher acceptor. […] Upon cleavage by the beta-secretase, the fluorophore Mca is separated from the quenching group Dnp, restoring the full fluorescence yield of the donor. The increase in fluorescence is linearly related to the rate of proteolysis.
Briefly in a 384-well format recombinant BACE2 protein in a final concentration of 0.4 μg/mL was incubated for 450 minutes at room temperature with 10 μM substrate in incubation buffer (final concentrations: 33.3 mM Citrate buffer pH 5.0, 0.033% PEG, 2% DMSO) in the absence or presence of compound. Next the amount of proteolysis was directly measured by fluorescence measurement at T=0 and T=450 (excitation at 320 nm and emission at 405 nm). Results were expressed in RFU (Relative Fluorescence Units), as difference between T450 and TO.
(§2) A best-fit curve was fitted by a minimum sum of squares method to the plot of % Controlmin versus compound concentration. From this an IC50 value (inhibitory concentration causing 50% inhibition of activity) can be obtained.
(§3) LC=Median of the low control values
(§4) =Low control: Reaction without enzyme
(§5) HC=Median of the High control values

[3] = biological target: recombinant BACE1 protein (Homo sapiens (Human), UniProt P56817); assay: BACE1 biochemical FRET based assay; conditions: for Selectivity: BACE1 versus BACE2; for IC50: FRET, pH 5.0
Source text: (1) BACE1 Biochemical FRET Based Assay
as §1, with “this assay is an APP derived 13 amino acids peptide that contains the” for “this assay contains the”, “protein (APP) beta-site secretase cleavage site.” for “protein (APP) beta-secretase cleavage site.”, “cleavage by BACE1, the fluorophore” for “cleavage by the beta-secretase, the fluorophore”
Briefly in a 384-well format recombinant BACE1 protein in a final concentration of 0.04 μg/mL was incubated for 450 minutes at room temperature with […] substrate in incubation buffer (final concentrations: 33.3 mM Citrate buffer pH 5.0, 0.033% PEG, 3% DMSO) in the absence or presence of compound. Next the amount of proteolysis was directly measured by fluorescence measurement at T=0′-120′ and T=450′ (excitation at 320 nm and emission at 405 nm). Results were expressed in RFU (Relative Fluorescence Units), as difference between T450 and Tx (Tx is chosen depending on the reaction speed between 0 and 120 minutes).
as §2, §3, §4, §5
=High Control: Reaction with enzyme % Effect=100−[(sample−LC)/(HC−LC)*100] % Control=(sample/HC)*100 % Controlmin=(sample−LC)/(HC−LC)*100

[4] = biological target: human ether-a-go-go related gene (hERG) channel (Homo sapiens (Human), UniProt Q12809); assay: hERG test; assay type: cell-based; conditions: CHO cells expressing hERG
Source text: For the purpose of assessing risk of an electrocardiogram QT interval prolongation, effects on delayed rectifier K+ current (IKr), which plays an important role in the ventricular repolarization process of the compound of the present invention, was studied using CHO cells expressing human ether-a-go-go related gene (hERG) channel.
A cell was retained at a membrane potential of −80 mV by whole cell patch clamp method using an automated patch clamp system (QPatch; Sophion Bioscience A/S). After application of leak potential at −50 mV, IKr induced by depolarization pulse stimulation at +20 mV for 2 seconds and, further, repolarization pulse stimulation at −50 mV for 2 seconds was recorded.
Further, the % inhibition relative to the tail peak current before application of the compound of the present invention was calculated, and compared with the vehicle-applied group (0.1% dimethyl sulfoxide solution) to assess influence of the compound of the present invention on IKr.

Chain of recombinant BACE1 protein (P56817 46-501): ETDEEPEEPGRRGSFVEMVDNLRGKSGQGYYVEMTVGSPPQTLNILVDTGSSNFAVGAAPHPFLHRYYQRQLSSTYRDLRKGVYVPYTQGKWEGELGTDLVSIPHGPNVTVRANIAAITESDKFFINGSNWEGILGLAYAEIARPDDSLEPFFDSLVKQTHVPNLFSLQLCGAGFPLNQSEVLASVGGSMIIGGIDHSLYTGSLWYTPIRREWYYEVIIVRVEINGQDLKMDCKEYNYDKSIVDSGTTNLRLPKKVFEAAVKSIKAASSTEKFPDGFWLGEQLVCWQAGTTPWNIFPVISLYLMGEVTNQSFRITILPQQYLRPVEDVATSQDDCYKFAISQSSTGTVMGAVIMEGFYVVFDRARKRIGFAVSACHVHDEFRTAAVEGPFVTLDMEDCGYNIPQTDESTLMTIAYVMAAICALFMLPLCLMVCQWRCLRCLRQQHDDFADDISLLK
Chain of recombinant BACE2 protein (Q9Y5Z0 63-518): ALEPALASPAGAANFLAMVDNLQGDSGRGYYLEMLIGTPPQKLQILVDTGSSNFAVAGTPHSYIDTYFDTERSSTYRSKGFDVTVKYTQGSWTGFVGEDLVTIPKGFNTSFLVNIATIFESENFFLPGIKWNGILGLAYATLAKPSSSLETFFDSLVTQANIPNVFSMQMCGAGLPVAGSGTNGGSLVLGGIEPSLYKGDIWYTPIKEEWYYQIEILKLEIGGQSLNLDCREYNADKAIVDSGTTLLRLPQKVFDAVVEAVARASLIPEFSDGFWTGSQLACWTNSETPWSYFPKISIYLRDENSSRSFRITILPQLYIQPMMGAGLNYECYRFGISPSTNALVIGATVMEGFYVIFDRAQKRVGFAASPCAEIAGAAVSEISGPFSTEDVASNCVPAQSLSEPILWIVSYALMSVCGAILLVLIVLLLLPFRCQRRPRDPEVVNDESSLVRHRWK
Chain of human ether-a-go-go related gene (hERG) channel (Q12809 whole entry): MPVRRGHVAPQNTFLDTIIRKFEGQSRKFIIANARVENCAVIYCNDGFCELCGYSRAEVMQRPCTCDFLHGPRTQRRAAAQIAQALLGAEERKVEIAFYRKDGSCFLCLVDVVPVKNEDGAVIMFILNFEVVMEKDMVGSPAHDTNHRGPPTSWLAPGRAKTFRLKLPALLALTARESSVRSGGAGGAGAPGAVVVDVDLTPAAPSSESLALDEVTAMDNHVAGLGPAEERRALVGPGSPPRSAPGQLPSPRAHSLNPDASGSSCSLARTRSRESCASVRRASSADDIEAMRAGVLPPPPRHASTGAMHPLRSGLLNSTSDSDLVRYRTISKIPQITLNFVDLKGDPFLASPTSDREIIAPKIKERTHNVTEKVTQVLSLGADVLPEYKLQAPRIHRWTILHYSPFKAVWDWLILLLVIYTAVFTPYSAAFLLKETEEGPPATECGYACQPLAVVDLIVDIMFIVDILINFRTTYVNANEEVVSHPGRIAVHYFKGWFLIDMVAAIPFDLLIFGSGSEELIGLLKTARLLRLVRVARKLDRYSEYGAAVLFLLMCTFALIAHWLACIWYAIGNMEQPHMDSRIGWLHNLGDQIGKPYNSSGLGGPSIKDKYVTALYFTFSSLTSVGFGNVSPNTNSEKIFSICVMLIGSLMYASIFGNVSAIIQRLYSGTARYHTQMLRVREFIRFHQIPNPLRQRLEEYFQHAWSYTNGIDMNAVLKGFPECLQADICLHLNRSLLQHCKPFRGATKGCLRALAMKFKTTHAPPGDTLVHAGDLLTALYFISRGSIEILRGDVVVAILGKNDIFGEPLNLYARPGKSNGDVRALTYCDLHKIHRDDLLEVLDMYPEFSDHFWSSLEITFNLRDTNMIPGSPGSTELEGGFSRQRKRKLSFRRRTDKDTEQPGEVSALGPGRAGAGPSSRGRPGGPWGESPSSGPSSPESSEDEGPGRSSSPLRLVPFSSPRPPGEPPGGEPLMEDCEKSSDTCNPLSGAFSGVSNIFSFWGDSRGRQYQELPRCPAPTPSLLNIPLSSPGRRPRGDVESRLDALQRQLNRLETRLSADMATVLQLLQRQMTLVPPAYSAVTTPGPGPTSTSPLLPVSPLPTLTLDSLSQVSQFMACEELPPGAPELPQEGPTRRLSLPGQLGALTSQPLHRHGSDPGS

IC50 [2] [nM] | Selectivity [3] | IC50 [3] [nM] | Compound | % Decrease in Abeta 1-42 at 8 h post dosing compared to own baseline ([1]; single dose 0.31 mg/kg) [%] | % Decrease in Abeta 1-42 at 24 h^(a) or 25 h^(b) post dosing compared to own baseline ([1]; single dose 0.31 mg/kg) [%] | % Decrease in Abeta 1-42 at 8 h post dosing compared to own baseline ([1]; single dose 0.63 mg/kg) [%] | % Decrease in Abeta 1-42 at 24 h^(a) or 25 h^(b) post dosing compared to own baseline ([1]; single dose 0.63 mg/kg) [%] | % Decrease in Abeta 1-42 at 8 h post dosing compared to own baseline ([1]; single dose 3.75 mg/kg) [%] | % Decrease in Abeta 1-42 at 24 h^(a) or 25 h^(b) post dosing compared to own baseline ([1]; single dose 3.75 mg/kg) [%] | % Decrease in Abeta 1-42 at 49 h post dosing compared to own baseline ([1]; single dose 3.75 mg/kg) [%] | hERG inhibition (%) at 3 μM [4] [%] | % Decrease in Abeta 1-42 at 49 h post dosing compared to own baseline ([1]; single dose 0.31 mg/kg) [%] | % Decrease in Abeta 1-42 at 8 h post dosing compared to own baseline ([1]; single dose 2.5 mg/kg) [%] | % Decrease in Abeta 1-42 at 24 h^(a) or 25 h^(b) post dosing compared to own baseline ([1]; single dose 2.5 mg/kg) [%] | % Decrease in Abeta 1-42 at 49 h post dosing compared to own baseline ([1]; single dose 2.5 mg/kg) [%] | % Decrease in Abeta 1-42 at 49 h post dosing compared to own baseline ([1]; single dose 0.63 mg/kg) [%] | % Decrease in Abeta 1-42 at 8 h post dosing compared to own baseline ([1]; single dose 1.25 mg/kg) [%] | % Decrease in Abeta 1-42 at 24 h^(a) or 25 h^(b) post dosing compared to own baseline ([1]; single dose 1.25 mg/kg) [%] | % Decrease in Abeta 1-42 at 49 h post dosing compared to own baseline ([1]; single dose 1.25 mg/kg) [%]
1180 | 69.2 | 17 | NC1=N[C@](CF)(c2cc(NC(=O)c3cnc(-n4cncn4)cn3)ccc2F)[C@H]2COCC[C@H]2O1 [Compound I-047] |  |  |  |  |  |  |  | 11.6 |  |  |  |  |  |  |  | 
339 | 35.5 | 9.5 | C[C@@H]1C[C@H]2OC(N)=N[C@](CF)(c3cc(NC(=O)c4cnc(OCF)cn4)ccc3Cl)[C@H]2CO1 [Compound I-065] |  |  | −49 | −52 |  |  |  | 37.8 |  |  |  |  | −20 | −59 | −56 | −34
269 | 30.2 | 8.9 | COc1cnc(C(=O)Nc2ccc(F)c([C@@]3(CF)N=C(N)O[C@@H]4CCOC[C@@H]43)c2)cn1 [Compound I-067] | −36 |  | −64 |  |  |  |  | 5.39 |  |  |  |  |  |  |  | 
178 | 63.1 | 2.8 | NC1=N[C@](CF)(c2cc(NC(=O)c3cnc(OC(F)F)cn3)ccc2F)[C@H]2COCC[C@H]2O1 [Compound I-076] | −68 |  | −65 |  |  |  |  | 18.5 |  |  |  |  |  |  |  | 
302 | 17.8 | 17 | NC1=N[C@](CF)(c2cc(NC(=O)c3ccc(C(F)(F)F)cn3)ccc2F)[C@H]2COCC[C@H]2O1 [Compound I-105] |  |  |  |  |  |  |  | 40.8 |  |  |  |  |  |  |  | 

Compound | IC50 [2] [nM] | Selectivity [3] | IC50 [3] [nM] | % Decrease in Abeta 1-42 at 8 h post dosing compared to own baseline ([1]; single dose 0.31 mg/kg) [%] | % Decrease in Abeta 1-42 at 24 h^(a) or 25 h^(b) post dosing compared to own baseline ([1]; single dose 0.31 mg/kg) [%] | % Decrease in Abeta 1-42 at 8 h post dosing compared to own baseline ([1]; single dose 0.63 mg/kg) [%] | % Decrease in Abeta 1-42 at 24 h^(a) or 25 h^(b) post dosing compared to own baseline ([1]; single dose 0.63 mg/kg) [%] | % Decrease in Abeta 1-42 at 8 h post dosing compared to own baseline ([1]; single dose 3.75 mg/kg) [%] | % Decrease in Abeta 1-42 at 24 h^(a) or 25 h^(b) post dosing compared to own baseline ([1]; single dose 3.75 mg/kg) [%] | % Decrease in Abeta 1-42 at 49 h post dosing compared to own baseline ([1]; single dose 3.75 mg/kg) [%] | hERG inhibition (%) at 3 μM [4] [%] | % Decrease in Abeta 1-42 at 49 h post dosing compared to own baseline ([1]; single dose 0.31 mg/kg) [%] | % Decrease in Abeta 1-42 at 8 h post dosing compared to own baseline ([1]; single dose 2.5 mg/kg) [%] | % Decrease in Abeta 1-42 at 24 h^(a) or 25 h^(b) post dosing compared to own baseline ([1]; single dose 2.5 mg/kg) [%] | % Decrease in Abeta 1-42 at 49 h post dosing compared to own baseline ([1]; single dose 2.5 mg/kg) [%] | % Decrease in Abeta 1-42 at 49 h post dosing compared to own baseline ([1]; single dose 0.63 mg/kg) [%] | % Decrease in Abeta 1-42 at 8 h post dosing compared to own baseline ([1]; single dose 1.25 mg/kg) [%] | % Decrease in Abeta 1-42 at 24 h^(a) or 25 h^(b) post dosing compared to own baseline ([1]; single dose 1.25 mg/kg) [%] | % Decrease in Abeta 1-42 at 49 h post dosing compared to own baseline ([1]; single dose 1.25 mg/kg) [%]
NC1=N[C@](CF)(c2cc(NC(=O)c3cnc(OCF)cn3)ccc2F)[C@H]2COCC[C@H]2O1 [Compound I-007] | 302 | 40.7 | 7.4 | −61 | −23 | −69 | −48 | −64 | −82 | −40 | 6.83 |  |  |  |  |  |  |  | 
C[C@@H]1C[C@H]2OC(N)=N[C@](CF)(c3cc(NC(=O)c4cnc(OCF)cn4)ccc3F)[C@H]2CO1 [Compound I-008] | 646 | 43.7 | 14.8 | −57 | −28 | −58 | −48 |  |  |  | 18.5 | −25 | −81 | −76 | −49 |  |  |  | 
